Data taken from patent publication US8268778B2, “Flavivirus NS5A proteins for the treatment of HIV” (priority 2007, dated 2012).
Entries after “also recorded” stand apart in the source; their conditions may differ.

Experiments:
CD4 = format: cell-based, human
HIV-1 isolate (X4) [1] = assay: HIV replication (p24 antigen release) in Jurkat cell lines stably expressing NS5A proteins/peptides; format: cell-based; conditions: Jurkat cell lines stably expressing the protein/peptide vs vector and frame-shift controls
CXCR4 = format: cell-based, human
SDF-1 = format: cell-based, human
Jurkat cells = format: cell-based, human
HIV-1 isolate (X4) [2] = format: cell-based

Sequence	CD4 surface expression (CD4)	HIV replication (HIV p24 antigen release into culture supernatants) (HIV-1 isolate (X4) [1])	CXCR4 surface expression (CXCR4)	SDF-1 release into culture supernatants (SDF-1)	CD4 mRNA regulation, in words (Jurkat cells)	regulation of Th2 cytokines, TNFα, and BCL2 mRNA (Jurkat cells)	HIV replication (HIV-1 isolate (X4) [2])
VDGIPVAWDADARAPA (Hepatitis GB virus C) [S158A]	do not	inhibited HIV replication; also recorded: significantly less HIV replication than FS and VC	–	–	–	–	–
VDGIPVEWDADARAPA [S158E]	down-regulate CD4	significantly inhibited; also recorded: significantly less HIV replication than all other cell lines	significantly less CXCR4 expressed	induced SDF-1 release	–	–	–
VDGIPVSWDADARAPA (Hepatitis GB virus C) [152-167]	down-regulate CD4	significantly reduced	–	–	down-regulated	do not appear to be altered	–
DVIRAGPAWDSVAPAD [152-167scr, negative control, reference compound]	do not	–	–	–	–	–	Neither peptide inhibited HIV replication
VDGIPVSWDADARA (Hepatitis GB virus C) [152-165]	–	significantly reduced	–	induced	–	–	–
VDGIPVGWDADARAPA (Hepatitis GB virus C) [S158G]	do not	inhibited HIV replication; also recorded: significantly less HIV replication than FS and VC	–	–	–	–	–
